Test results from patent publication US9713651B2, “Compositions, methods, and systems for the synthesis and use of imaging agents” (Lantheus Medical Imaging, Inc., priority 2012, dated 2017).

Test: Tissue distribution of 18F imaging agents in rats
Format: in vivo, Male Sprague Dawley rats
Conditions: rat, iv tail vein ~15 μCi, ± SEM; for Blood, imaging agent distribution at 15 min / Brain, imaging agent distribution at 15 min / Femur, imaging agent distribution at 15 min / Heart, imaging agent distribution at 15 min / Kidney, imaging agent distribution at 15 min / Liver, imaging agent distribution at 15 min / Lung, imaging agent distribution at 15 min / Muscle, imaging agent distribution at 15 min / Pancreas, imaging agent distribution at 15 min / Spleen, imaging agent distribution at 15 min: 15 min post injection; for Blood, imaging agent distribution at 60 min / Brain, imaging agent distribution at 60 min / Femur, imaging agent distribution at 60 min / Heart, imaging agent distribution at 60 min / Kidney, imaging agent distribution at 60 min / Liver, imaging agent distribution at 60 min / Lung, imaging agent distribution at 60 min / Muscle, imaging agent distribution at 60 min / Pancreas, imaging agent distribution at 60 min / Spleen, imaging agent distribution at 60 min: 60 min post injection
Procedure: Anesthetized (sodium pentobarbital at 50 mg/kg, ip or isoflurane gas inhalation) Male Sprague Dawley rats (250-350 g) received an iv injection of the imaging agent (˜15 μCi) via the tail vein. At 15 or 60 min post injection, the animals were euthanized and the required tissue samples harvested. All samples were then weighed and counted for radioactivity (Wallac Wizard 1480 or Packard Cobra II Autogamma); regional tissue uptake of the imaging agent was thus expressed as a percentage of the total injected dose per gram of tissue (% ID/g).
The generic structure depicted below highlights specific structural features evaluated during distribution experiments.

Compound | Blood, imaging agent distribution at 15 min [% ID/g] | Brain, imaging agent distribution at 15 min [% ID/g] | Femur, imaging agent distribution at 15 min [% ID/g] | Heart, imaging agent distribution at 15 min [% ID/g] | Kidney, imaging agent distribution at 15 min [% ID/g] | Liver, imaging agent distribution at 15 min [% ID/g] | Lung, imaging agent distribution at 15 min [% ID/g] | Muscle, imaging agent distribution at 15 min [% ID/g] | Pancreas, imaging agent distribution at 15 min [% ID/g] | Spleen, imaging agent distribution at 15 min [% ID/g] | Blood, imaging agent distribution at 60 min [% ID/g] | Brain, imaging agent distribution at 60 min [% ID/g] | Femur, imaging agent distribution at 60 min [% ID/g] | Heart, imaging agent distribution at 60 min [% ID/g] | Kidney, imaging agent distribution at 60 min [% ID/g] | Liver, imaging agent distribution at 60 min [% ID/g] | Lung, imaging agent distribution at 60 min [% ID/g] | Muscle, imaging agent distribution at 60 min [% ID/g] | Pancreas, imaging agent distribution at 60 min [% ID/g] | Spleen, imaging agent distribution at 60 min [% ID/g]
CC(C)(C)n1ncc(OCc2ccc(C(=O)OCCF)cc2)c(Cl)c1=O [Example 67J] | 0.50 ± 0.02 | 0.36 ± 0.01 | 0.28 ± 0.02 | 1.19 ± 0.25 | 0.39 ± 0.01 | 0.32 ± 0.01 | 0.39 ± 0.02 | 0.38 ± 0.04 | 0.23 ± 0.02 | 0.34 ± 0.01 | 0.58 ± 0.04 | 0.43 ± 0.02 | 0.40 ± 0.03 | 0.50 ± 0.03 | 0.42 ± 0.02 | 0.35 ± 0.02 | 0.42 ± 0.02 | 0.31 ± 0.02 | 0.23 ± 0.03 | 0.37 ± 0.02
CC(C)(C)n1ncc(OCc2ccc(C#CCCF)cc2)c(Cl)c1=O [Example 67K] | 0.07 ± 0.03 | 0.36 ± 0.04 | 0.27 ± 0.02 | 2.68 ± 0.35 | 1.35 ± 0.14 | 0.99 ± 0.06 | 0.37 ± 0.15 | 0.28 ± 0.02 | 0.55 ± 0.10 | 0.31 ± 0.09 | 0.03 ± 0.00 | 0.36 ± 0.03 | 0.37 ± 0.05 | 2.46 ± 0.27 | 0.83 ± 0.08 | 0.83 ± 0.17 | 0.15 ± 0.03 | 0.39 ± 0.04 | 0.38 ± 0.02 | 0.11 ± 0.02
CC(C)(C)n1ncc(OCc2ccc([Si](F)(C(C)(C)C)C(C)(C)C)cc2)c(Cl)c1=O [Example 67N] | 0.22 ± 0.04 | 0.03 ± 0.00 | 0.14 ± 0.02 | 0.65 ± 0.09 | 0.51 ± 0.09 | 4.91 ± 0.49 | 1.31 ± 0.24 | 0.06 ± 0.00 |  | 3.47 ± 0.80 |  |  |  |  |  |  |  |  |  | 

The next lines start with the values.

Blood, imaging agent distribution at 15 min [% ID/g] | Brain, imaging agent distribution at 15 min [% ID/g] | Femur, imaging agent distribution at 15 min [% ID/g] | Heart, imaging agent distribution at 15 min [% ID/g] | Kidney, imaging agent distribution at 15 min [% ID/g] | Liver, imaging agent distribution at 15 min [% ID/g] | Lung, imaging agent distribution at 15 min [% ID/g] | Muscle, imaging agent distribution at 15 min [% ID/g] | Pancreas, imaging agent distribution at 15 min [% ID/g] | Spleen, imaging agent distribution at 15 min [% ID/g] | Blood, imaging agent distribution at 60 min [% ID/g] | Brain, imaging agent distribution at 60 min [% ID/g] | Femur, imaging agent distribution at 60 min [% ID/g] | Heart, imaging agent distribution at 60 min [% ID/g] | Kidney, imaging agent distribution at 60 min [% ID/g] | Liver, imaging agent distribution at 60 min [% ID/g] | Lung, imaging agent distribution at 60 min [% ID/g] | Muscle, imaging agent distribution at 60 min [% ID/g] | Pancreas, imaging agent distribution at 60 min [% ID/g] | Spleen, imaging agent distribution at 60 min [% ID/g] | Compound
0.11 ± 0.02 | 0.49 ± 0.10 | 0.28 ± 0.04 | 2.34 ± 0.57 | 1.13 ± 0.11 | 0.33 ± 0.02 | 0.19 ± 0.03 | 0.28 ± 0.13 | 0.43 ± 0.10 | 0.18 ± 0.01 | 0.16 ± 0.01 | 0.36 ± 0.01 | 0.31 ± 0.02 | 1.78 ± 0.15 | 0.48 ± 0.04 | 0.30 ± 0.01 | 0.19 ± 0.01 | 0.35 ± 0.09 | 0.23 ± 0.02 | 0.13 ± 0.00 | Cc1c(OCc2ccc(COCCF)cc2)cnn(C(C)(C)C)c1=O [Example 67I]
0.14 ± 0.01 | 0.30 ± 0.05 | 0.31 ± 0.01 | 1.19 ± 0.18 | 0.65 ± 0.07 | 1.71 ± 0.36 | 0.29 ± 0.03 | 0.27 ± 0.02 | 0.36 ± 0.06 | 0.18 ± 0.01 | 0.10 ± 0.02 | 0.22 ± 0.03 | 0.78 ± 0.15 | 0.62 ± 0.12 | 0.40 ± 0.08 | 2.06 ± 0.27 | 0.21 ± 0.02 | 0.20 ± 0.06 | 0.33 ± 0.08 | 0.11 ± 0.02 | CC(C)(C)n1ncc(OCc2ccc(-c3cnc(F)nc3)cc2)c(Cl)c1=O [Example 67L]
0.53 ± 0.13 | 0.55 ± 0.31 | 0.52 ± 0.19 | 2.54 ± 0.20 | 0.79 ± 0.07 | 0.96 ± 0.10 | 0.97 ± 0.13 | 0.24 ± 0.04 |  | 0.35 ± 0.05 | 0.73 ± 0.16 | 2.33 ± 0.12 | 0.43 ± 0.03 | 0.55 ± 0.06 | 0.43 ± 0.04 | 0.43 ± 0.04 | 1.03 ± 0.22 | 0.31 ± 0.04 |  | 0.26 ± 0.03 | CC(C)(C)n1ncc(CCc2ccc(COCCF)cc2)c(Cl)c1=O [Example 67M]
